From article PMC10667816, “A Cell‐Penetrant Peptide Disrupting the Transcription Factor CP2c Complexes Induces Cancer‐Specific Synthetic Lethality” (Advanced Science, 2023)
*1 amine or outer side, *2 acyl side, *3 side chain or, on linkers, in order; H or OH if unused. Where a SMILES comes first, the peptide text is derived from it. Side-chain parts run from the residue outwards. The star is where a group is joined. γGlu = O=C(O)[C@H](CCC(=O)[*:2])N[*:1]; Palmitoyl = CCCCCCCCCCCCCCCC(=O)*

Experiments:
[1] = In vivo pharmacokinetics test; conditions: plasma; male CD‐1 (ICR) mouse, single intravenous 5 mg kg^−1, sampled 0.033–48 h, peripheral blood, noncompartmental analysis (Phoenix WinNonlin 6.3)
Method: A pharmacokinetics study was conducted at WuXiAppTec., Ltd. In this study, male CD‐1 (ICR) mouse was given a single intravenous injection of 5 mg kg^−1 of ACP52CGK. Blood samples were collected prior to dosing on day 0 and at various time points, including 0.033, 0.083, 0.25, 0.5, 1, 2, 6, 12, 24, and 48 h after dosing. The data collected from these samples were used to calculate pharmacokinetic parameters using the IV‐noncompartmental analysis model 201 in Phoenix WinNonlin version 6.3.
Figure S23. Pharmacokinetics analysis of ACP52CGK
A) PK parameters of ACP52CGK in CD-1(ICR) mice, calculated using the noncompartmental analysis
model 201 of Phoenix WinNonlin version 6.3. B) Mean plasma concentration of ACP52CGK at 0.033,

[2] = test system: hepatocellular carcinoma and breast cancer patient‐derived cancer cells; assay: Sensitivity of patient‐derived cancer cells; assay type: cell-based, human; conditions: preliminary data
Method: For primary cell culture, tumor tissue samples obtained from patients undergoing surgery were finely minced, washed with phosphate buffered saline (PBS) containing penicillin/streptomycin, and then treated with trypsin solution at 37 °C for up to 20 min. The resulting cell suspension was filtered through a strainer (BD Falcon, 352235). The filtered cells were maintained in EpiX media, which consists of keratinocyte serum free medium (KSFM; Gibco, 17005042) supplemented with 50 µg mL^−1 bovine pituitary extract (Gibco, 13028014), 5 ng mL^−1 human epidermal growth factor (EGF; Thermo Fisher, PHG0311L), 1 µM TGF beta inhibitor (A83‐01; Sigma–Aldrich, SML0788), 5 µM ROCK inhibitor (Y27632; Sigma–Aldrich, Y0503), and 3 µM isoproterenol (Sigma–Aldrich, I6504). The culture medium was refreshed daily. For organoid culture, portions of human tissue samples were separated and transported to the laboratory on ice within 1 h of removal from the patients in cold Hank's balanced salt solution (HBSS) with antibiotics. […]

[3] = test system: A431 epidermoid carcinoma; assay: A431 CDX mouse model; assay type: in vivo; conditions: intravenous injection every 2 or 3 days from day 14
Method: Animal experiments were conducted in accordance with ethical guidelines, and all protocols were approved by the Institutional Animal Care and Use Committee under Hanyang University (approval numbers, 2014‐0016A, 2018‐0049A, 2018‐0207A, and 2019‐0169A), Chung‐Ang University (approval number, 2015‐00022), Chungbuk University (approval number, CBNUA‐1072‐17‐02), and Konkuk University (approval number, KU17130). To establish xenograft mice models, Hep3B, A431, U343, and PC9 cells were subcutaneously injected into the flank of Balb/c nude mice. For the MDA‐MB‐231 (LM1) cell line, it was implanted into the mammary fat pad of immunodeficient mice (NPG mice). […] Tumor volume was calculated using the formula of length × width^2)/2. […] The in vivo administration amount was determined based on the concentration of ACP52C confirmed at the cellular level, which was 2 µM. […] For ACP52C derivatives, the amount was adjusted to ensure a similar molar quantity of peptide injection, taking their molecular weights into account. For instance, in the case of ACP52CGK, ≈1.67 times the quantity was used compared to ACP52C to achieve an equivalent molar quantity. […] Hematoxylin and eosin (H&E)‐stained tissue sections were analyzed and photographed, and the representative histological images were recorded. […]

**Q.** For `CCCCCCCCCCCCCCCC(=O)N[C@@H](CCC(=O)NCCCC[C@H](NC(=O)CNC(=O)CNC(=O)[C@@H]1CCCN1C(=O)[C@H](CCCNC(=N)N)NC(=O)[C@H](CCC(N)=O)NC(=O)[C@@H]1CCCN1C(=O)[C@H](Cc1ccc(O)cc1)NC(=O)[C@H](CC(N)=O)NC(C)=O)C(=O)NCC(=O)NCC(=O)N[C@@H](CS)C(=O)N[C@@H](CCCNC(=N)N)C(=O)NCC(=O)N[C@@H](CC(=O)O)C(=O)N[C@@H](CCCCN)C(=O)NCC(=O)N1CCC[C@H]1C(=O)N[C@@H](CC(=O)O)C(=O)N[C@@H](CS)C(N)=O)C(=O)O` [ACP52CGK] (Ac-NYPQRPGGK([γGlu-Palmitoyl])GGCRGDKGPDC-NH2), which half-life [1] is on record?
**A.** ~5.26 h

**Q.** Which results are given for `CC(=O)N[C@@H](CC(N)=O)C(=O)N[C@@H](Cc1ccc(O)cc1)C(=O)N1CCC[C@H]1C(=O)N[C@@H](CCC(N)=O)C(=O)N[C@@H](CCCNC(=N)N)C(=O)N1CCC[C@H]1C(=O)N[C@@H](CS)C(=O)N[C@@H](CCCNC(=N)N)C(=O)NCC(=O)N[C@@H](CC(=O)O)C(=O)N[C@@H](CCCCN)C(=O)NCC(=O)N1CCC[C@H]1C(=O)N[C@@H](CC(=O)O)C(=O)N[C@@H](CS)C(N)=O` [ACP52C] (Ac-NYPQRPCRGDKGPDC-NH2)?
**A.** fraction of patient‐derived cancer cells showing sensitivity [2]: over 85%; tumor weight [3]: significantly reduced tumor weight
